Holding throughout (experiment): cells
Parameters in all cases: species or system AML cell lines (8); Secondary HTS, 10-point dose-response in triplicate, Cell Titer Glo viability, four-parameter fit EC50
In general terms: Cellular ATP, detected with luciferase, serves as a proxy for viable cell number.

The test system of one test is MOLM-13. The note with it: Homo sapiens, MOLM-13, 72 h, read-out: MOLM-13.
The next test relates to CMK. The settings on record: Homo sapiens, CMK, 72 h, read-out: CMK.
A further test concerns CHRF288-11. The note with it: 72 h, read-out: CHRF288-11.
A further test relates to U937. The settings on record: Homo sapiens, U-937, 72 h, read-out: U937.
A further test has as its system CMS. The note with it: 72 h, read-out: CMS.
Another test deals with M07e. The note with it: M-07e, 72 h, read-out: M07e.
Another test has as its system ML-2. The settings on record: Homo sapiens, ML-2, 72 h, read-out: ML-2.
The subject of the next test is MV4-11. The note with it: Homo sapiens, MV4-11, 72 h, read-out: MV4-11.

Bounds are passed on as bounds.

For the molecule `O=C(NC(NC(=S)Nc1ccc(F)c([N+](=O)[O-])c1)C(Cl)(Cl)Cl)C(c1ccccc1)c1ccccc1` (centres unmarked) [SJ000786007, CGK 733], the EC50 in the test with MOLM-13, with CMK, with CHRF288-11, with U937, in the test with CMS and in the test with M07e was above 10 µM each time. Further, the EC50 in the test on ML-2 and in the test with MV4-11 was above 10 µM throughout.

For `Cc1cc2nc(NCCCO)n(CC(=O)c3cc(C(C)(C)C)c(O)c(C(C)(C)C)c3)c2cc1C` [SJ000786025, CID-2858522], the EC50 in the test on MOLM-13, in the test on CMK, in the test with CHRF288-11, with U937, with CMS and in the test with M07e was above 10 µM throughout. The EC50 with ML-2 and with MV4-11 was above 10 µM in each case.

In the case of `N[C@H](CCC(=O)N[C@@H](Cc1c[nH]c2ccccc12)C(=O)O)C(=O)O` [SJ000795988, GOLOTIMOD], the EC50 with MOLM-13, in the test with CMK, in the test on CHRF288-11, in the test on U937, in the test with CMS and in the test on M07e was above 10 µM throughout. For the same molecule, the EC50 with ML-2 and with MV4-11 was above 10 µM throughout.

For the molecule `Cc1ccc(C(=O)COC(=O)c2cccc(NC(=O)c3ccc([N+](=O)[O-])cc3[N+](=O)[O-])c2)cc1` [SJ000796012, FM19G11], the EC50 in the test on MOLM-13, with CMK, in the test with CHRF288-11, with U937, with CMS and in the test on M07e was above 10 µM each time. Besides, the EC50 with ML-2 and with MV4-11 was above 10 µM in each case.

As to `CC(C)Oc1ccc(-c2cnc3c(-c4ccnc5ccccc45)cnn3c2)cc1` [SJ000796016, DMH-1], the EC50 in the test with MOLM-13 was 0.0063 µM; with CMK it was above 10 µM; in the test with CHRF288-11, above 10 µM; with U937, above 10 µM; in the test on CMS, above 10 µM; in the test on M07e, above 10 µM. Also, the EC50 in the test on ML-2 and in the test with MV4-11 was above 10 µM each time.

For `Cc1nn(C)c(C)c1C(=O)N1CCN(Cc2nc3ccccc3n2CC(C)(C)C)CC1` [SJ000796025, FTASE INHIBITOR III], the EC50 was above 10 µM with MOLM-13; 3.1 µM in the test on CMK; above 10 µM with CHRF288-11; above 10 µM in the test on U937; above 10 µM with CMS; above 10 µM in the test with M07e. For the same molecule, the EC50 in the test on ML-2 and in the test with MV4-11 was above 10 µM in each case.

For `COC1=C2C[C@@H](C)C[C@H](OC)[C@H](O)[C@@H](C)/C=C(\C)[C@H](OC(N)=O)[C@@H](OC)/C=C\C=C(/C)C(=O)NC(=CC1=O)C2=O` [SJ000796035, GELDANOMYCIN], the EC50 was 0.021 µM in the test on MOLM-13; above 10 µM in the test on CMK; above 10 µM in the test on CHRF288-11; above 10 µM in the test with U937; above 10 µM with CMS; above 10 µM in the test on M07e. For the same molecule, the values for the EC50 in the test with ML-2 and in the test on MV4-11 were above 10 µM and 0.0098 µM, respectively.

As to `COc1ccc(/C=C/c2ccccc2F)cc1` [SJ000796052, CAY10512], the EC50 in the test with MOLM-13, in the test with CMK, in the test with CHRF288-11, in the test on U937, in the test with CMS and with M07e was above 10 µM throughout. For the same molecule, the EC50 in the test with ML-2 and in the test with MV4-11 was above 10 µM each time.

Turning to `CCNC(=O)c1cc2c(-c3cc(OCCN4CCCC4)c(Cl)cc3Cl)nc(N)nc2s1` [SJ000796085, NVP-BEP800], the EC50 with MOLM-13 is 0.087 µM; in the test with CMK it was 0.19 µM; with CHRF288-11 it was 0.43 µM; in the test on U937 it was 0.15 µM; in the test on CMS, 0.4 µM; in the test with M07e, above 10 µM. Also, the EC50 with ML-2 was 0.21 µM; in the test with MV4-11 it was 0.11 µM.

Turning to `COC(=O)[C@H](CCSC)NC(=O)c1ccc(NC[C@@H](N)CS)cc1-c1ccccc1` [SJ000803699, FTI-277], the EC50 in the test with MOLM-13, with CMK, with CHRF288-11, in the test with U937, in the test with CMS and in the test with M07e was above 10 µM in each case. Also, the EC50 with ML-2 and with MV4-11 was above 10 µM in each case.

For the molecule `O=C(c1cn(Cc2cncn2Cc2ccc(Br)cc2)cc1-c1cccc2ccccc12)N1CCOCC1` [SJ000803701, LB 42708], the EC50 with MOLM-13 is 2.5 µM; with CMK, above 10 µM; with CHRF288-11, above 10 µM; in the test with U937, above 10 µM; in the test on CMS it was 3.4 µM; in the test on M07e it was above 10 µM. Moreover, the figures for the EC50 in the test on ML-2 and with MV4-11 were 2.3 µM and 5 µM, respectively.

On to `CSCC[C@@H](NC(=O)c1ccc(CNCc2cnc[nH]2)cc1-c1ccccc1C)C(=O)OCc1ccccc1` [SJ000803709, FTI-2628], for which the EC50 with MOLM-13 was above 10 µM; with CMK, above 10 µM; in the test with CHRF288-11, above 10 µM; in the test with U937, 2 µM; in the test with CMS, above 10 µM; in the test with M07e, above 10 µM. For the same molecule, the EC50 in the test on ML-2 and in the test on MV4-11 was above 10 µM throughout.

Regarding `CSCC[C@H](NC(=O)c1ccc(NC(=O)[C@@H](N)CS)cc1)C(=O)O` [SJ000803714, H-CYS-4-ABZ-MET-OH], the EC50 is above 10 µM with MOLM-13; above 10 µM with CMK; above 10 µM with CHRF288-11; 2.7 µM in the test with U937; above 10 µM in the test with CMS; above 10 µM in the test on M07e. Moreover, the EC50 with ML-2 and with MV4-11 was above 10 µM throughout.

On to `COC(=O)[C@H](CC(C)C)NC(=O)c1ccc(NCc2cnc[nH]2)cc1-c1cccc2ccccc12` [SJ000803715, GGTI-2147], for which the EC50 with MOLM-13 is 1.1 µM; in the test with CMK, above 10 µM; in the test on CHRF288-11, above 10 µM; with U937 it was above 10 µM; in the test on CMS, above 10 µM; with M07e, above 10 µM. The EC50 in the test with ML-2 and in the test on MV4-11 was above 10 µM in each case.

Regarding `CSCC[C@H](NC(=O)[C@H](Cc1ccccc1)NC[C@@H](NC[C@@H](N)CS)C(C)C)C(=O)O` [SJ000803726, FTASE INHIBITOR I], the EC50 in the test on MOLM-13, in the test with CMK, with CHRF288-11, in the test on U937, in the test with CMS and with M07e was above 10 µM in each case. Also, the EC50 in the test on ML-2 and with MV4-11 was above 10 µM in each case.

With `Cc1cc(C(C)Nc2ccccc2)c2nc(N3CCOCC3)cc(=O)n2c1` (centres unmarked) [SJ000803731, TGX-221], the EC50 is 8 µM with MOLM-13; above 10 µM in the test on CMK; above 10 µM in the test with CHRF288-11; above 10 µM with U937; above 10 µM with CMS; above 10 µM with M07e. For the same molecule, the EC50 with ML-2 and in the test on MV4-11 was above 10 µM each time.

`Cc1c(N)nc([C@H](CC(N)=O)NC[C@H](N)C(N)=O)nc1C(=O)N[C@H](C(=O)N[C@H](C)[C@@H](O)[C@H](C)C(=O)N[C@H](C(=O)NCCc1nc(-c2nc(C(=O)NCCC[S+](C)C)cs2)cs1)[C@@H](C)O)[C@@H](OC1OC(CO)C(O)C(O)C1OC1OC(CO)C(O)C(OC(N)=O)C1O)c1cnc[nH]1` (some centres unmarked) [SJ000804032, BLEOMYCIN]: the EC50 in the test with MOLM-13 is 6.9 µM; in the test with CMK, above 10 µM; in the test with CHRF288-11, above 10 µM; with U937, above 10 µM; in the test on CMS, above 10 µM; with M07e, above 10 µM. Moreover, the EC50 with ML-2 and with MV4-11 was above 10 µM throughout.

With `O=C(c1ccc(Nc2nccc(-c3cc4ccccc4s3)n2)cc1)N1CCC(N2CCCC2)CC1` [SJ000806482, IKK 16], the EC50 with MOLM-13 was above 10 µM; in the test on CMK it was 2.8 µM; with CHRF288-11 it was 1 µM; in the test on U937 it was 1.5 µM; with CMS, 0.45 µM; in the test with M07e, 4.4 µM. Besides, the values for the EC50 in the test with ML-2 and in the test with MV4-11 were 0.42 µM and above 10 µM, respectively.

In the case of `CCc1c(O)cc(O)c(C(=O)c2ccc(OCCN3CCOCC3)c(OC)c2)c1CC(=O)N(CCOC)CCOC` [SJ000821566, KW-2478], the EC50 with MOLM-13 was 0.11 µM; in the test with CMK, 4.4 µM; in the test on CHRF288-11, 6.3 µM; in the test with U937, above 10 µM; in the test with CMS, above 10 µM; in the test with M07e, above 10 µM. The EC50 with ML-2 was 0.16 µM; in the test with MV4-11 it was 0.071 µM.

Source of the values: paper PMC6522510 (Nature Communications, 2019).
